Experimental data: PubChem BioAssay (NCI)
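Assay format: 96-well plates, 48-hour exposure. TGI denotes the concentration required for complete inhibition of growth.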

Key:
Experiment in all cases: NCI anticancer screen, dose series, 48 h
SNB-75 CNS = system: SNB-75 CNS
SW-620 colon = system: SW-620 colon
LXFL 529 NSCLC = system: LXFL 529 NSCLC
SK-MEL-2 melanoma = system: SK-MEL-2 melanoma
SK-MEL-5 melanoma = system: SK-MEL-5 melanoma
NCI-H23 lung = system: NCI-H23 lung
MOLT-4 leukemia = system: MOLT-4 leukemia
DMS 114 small cell lung = system: DMS 114 small cell lung
OVCAR-8 ovarian = system: OVCAR-8 ovarian
CAKI-1 renal = system: CAKI-1 renal
HL-60(TB) leukemia = system: HL-60(TB) leukemia
UACC-257 melanoma = system: UACC-257 melanoma
CCRF-CEM leukemia = system: CCRF-CEM leukemia
HCC-2998 colon = system: HCC-2998 colon
A549 NSCLC = system: A549 NSCLC
M14 melanoma = system: M14 melanoma
HOP-62 NSCLC = system: HOP-62 NSCLC
TK-10 renal = system: TK-10 renal
SF-295 CNS = system: SF-295 CNS
SR leukemia = system: SR leukemia
OVCAR-5 ovarian = system: OVCAR-5 ovarian
NCI-H460 lung = system: NCI-H460 lung
NCI-H226 lung = system: NCI-H226 lung
SK-MEL-28 melanoma = system: SK-MEL-28 melanoma
K-562 leukemia = system: K-562 leukemia
MALME-3M melanoma = system: MALME-3M melanoma
SF-539 CNS = system: SF-539 CNS
IGROV1 ovarian = system: IGROV1 ovarian
SK-OV-3 ovarian = system: SK-OV-3 ovarian
DMS 273 small cell lung = system: DMS 273 small cell lung
OVCAR-3 ovarian = system: OVCAR-3 ovarian
KM12 colon = system: KM12 colon
HOP-92 NSCLC = system: HOP-92 NSCLC
LOX IMVI melanoma = system: LOX IMVI melanoma
M19-MEL melanoma = system: M19-MEL melanoma
RXF 393 renal = system: RXF 393 renal
HT29 colon = system: HT29 colon
SF-268 CNS = system: SF-268 CNS
SNB-19 CNS = system: SNB-19 CNS
KM20L2 colon = system: KM20L2 colon
NCI-H522 lung = system: NCI-H522 lung
HCT-15 colon = system: HCT-15 colon
786-0 renal = system: 786-0 renal
HOP-18 NSCLC = system: HOP-18 NSCLC
ACHN renal = system: ACHN renal
DLD-1 colon = system: DLD-1 colon
SNB-78 CNS = system: SNB-78 CNS
HCT-116 colon = system: HCT-116 colon
RPMI-8226 leukemia = system: RPMI-8226 leukemia
COLO 205 colon = system: COLO 205 colon
SN12C renal = system: SN12C renal
OVCAR-4 ovarian = system: OVCAR-4 ovarian
UACC-62 melanoma = system: UACC-62 melanoma
U251 CNS = system: U251 CNS
EKVX NSCLC = system: EKVX NSCLC
UO-31 renal = system: UO-31 renal
A498 renal = system: A498 renal

Measured: TGI

N/N=C(\CCN1CCCC1)CC(c1ccccc1)c1c(O)c2ccccc2oc1=O (stereo not given)
not listed: UO-31 renal | A498 renal
> 100 µM: all other assays above

Cc1ccc(Oc2ccc(C(=O)c3cccc(C(=O)c4ccc(Oc5ccc(C)cc5)cc4)n3)cc2)cc1
not listed: M19-MEL melanoma | RPMI-8226 leukemia
> 100 µM: all other assays above
